Assay results published in patent publication US20220125765A1, “PHARMACEUTICAL COMBINATIONS COMPRISING MEBENDAZOLE AND A STRONG OR MODERATE CYP1A2 INHIBITOR” (ZEPHAPHARM LTD, priority 2019, published 2022).
pIC50: −log10 of the molar value. Where two headings read alike, the source gives them in different places.

Experiments:
[1] = system: SK-OV-3; assay: 2D monolayer CellTiter-Blue viability, ovarian cancer SK-OV-3; format: cell-based; conditions: for pIC50: Homo sapiens; for Test/Control (%) at Drug Concentration: 72 h
Description: Mebendazole was tested in vitro across a panel of 12 tumor cell lines of ovarian and renal cancer by using a 2D monolayer assay. […] OVXF 899L and RXF 486L are P-gp expressing, multidrug resistant cell lines.
Anti-tumor activity is expressed as absolute and relative IC50/70 values, calculated by 4-parameter non-linear curve fit.

[2] = system: NBXF SH-SY5Y; assay: 2D monolayer CellTiter-Blue viability, neuroblastoma SH-SY5Y; format: cell-based; conditions: 72 h
Description: Seventeen compounds, including mebendazole (Batch no. […] Efficacy of compounds was assessed using CellTiter-Blue® Cell Viability Assay. Anti-tumor activity is expressed as absolute and relative IC50 and IC70 values, calculated by non-linear regression analysis.

[3] = target: CYP3A4 (Homo sapiens, UniProt P08684); assay: Cytochrome P450 reaction phenotyping, recombinant CYP3A4 (Bactosomes)
CYP3A4, sequence (P08684 whole entry, canonical isoform): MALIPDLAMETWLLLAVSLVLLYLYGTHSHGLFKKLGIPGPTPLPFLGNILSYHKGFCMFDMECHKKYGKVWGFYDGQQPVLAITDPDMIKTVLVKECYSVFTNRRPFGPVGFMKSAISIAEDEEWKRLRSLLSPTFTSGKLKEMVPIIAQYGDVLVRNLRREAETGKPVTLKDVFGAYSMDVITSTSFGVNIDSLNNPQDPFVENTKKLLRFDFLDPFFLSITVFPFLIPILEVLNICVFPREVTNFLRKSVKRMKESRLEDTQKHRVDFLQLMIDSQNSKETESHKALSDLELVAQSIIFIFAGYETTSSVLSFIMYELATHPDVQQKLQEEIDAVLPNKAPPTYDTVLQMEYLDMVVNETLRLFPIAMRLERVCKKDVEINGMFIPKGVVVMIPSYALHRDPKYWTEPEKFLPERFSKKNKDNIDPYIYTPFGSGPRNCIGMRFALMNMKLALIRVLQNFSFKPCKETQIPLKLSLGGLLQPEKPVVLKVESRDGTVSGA
Description: Incubations were also performed using control Bactosomes™ (no P450 enzymes present) to reveal any non-enzymatic degradation. Control compounds known to be metabolised specifically by each P450 isoform were included. All incubations were performed singularly for each test compound.
Incubations were also performed using control Bactosomes™ (no P450 enzymes present) to reveal any non-enzymatic degradation. Control compounds known to be metabolised specifically by each P450 isoform were included. All incubations were performed singularly for each test compound. […] The reactions were stopped by transferring an aliquot of incubate to quench solvent at the appropriate time points, in a 1:3 ratio. The termination plates were centrifuged at 3,000 rpm for 20 min at 4° C. to precipitate the protein.

[4] = Stability in human cryopreserved hepatocytes without and with cimetidine or furafylline (Example 5); format: in vitro ADME; conditions: human; for hepatocyte CLint at 1 µM: read-out: intrinsic clearance
Description: The final incubation volume was 500 μL. Two control compounds were included with each species, alongside appropriate vehicle control.
The samples were analysed for mebendazole or ethoxycoumarin using LC-MS/MS.
The final incubation volume was 500 μL.
A positive control compound, ethoxycoumarin, for CYP1A2 was included. […] The samples were analysed for mebendazole or ethoxycoumarin using LC-MS/MS.

[5] = in vitro; conditions: human, hepatocytes, t½
Description: Mebendazole (1 μM) was incubated with cryopreserved human hepatocytes for 60 min in the absence and presence of cimetidine at 30, 100 and 300 μM) and thiabendazole at 10, 30 and 100 μM and samples taken at the required time points. The amount of test compound remaining at each time point was analysed by LC-MS/MS. Appropriate control compounds were also incubated along with ethoxycoumarin, which was incubated in the absence and presence of cimetidine and thiabendazole.
The final incubation volume was 500 μL. Two control compounds were included, alongside appropriate vehicle control. A positive control compound, ethoxycoumarin, for CYP1A2 was included. The positive control compound was incubated without inhibitor and in the presence of each inhibitor. The reactions were stopped by transferring 50 μL of incubate to 100 μL acetonitrile containing internal standard at the appropriate time points (0, 5, 10, 20, 40 and 60 min). The termination plates were centrifuged at 2500 rpm at 4° C. for 30 min to precipitate the protein.

COC(=O)Nc1nc2ccc(C(=O)c3ccccc3)cc2[nH]1 [Mebendazole, methyl N-(6-benzoyl-1H-benzimidazol-2-yl)carbamate]
pIC50 ([1]; SK-OV-3, 72 h, read-out: Abs. IC50): 5.92
pIC50 ([1]; SK-OV-3, 72 h, read-out: Rel. IC50): 6.32
Test/Control (%) at Drug Concentration ([1]; SK-OV-3, 1.0E+00 μM): 52%
Test/Control (%) at Drug Concentration ([1]; SK-OV-3, 1.0E−01 μM): 99%
Test/Control (%) at Drug Concentration ([1]; SK-OV-3, 1.0E−02 μM): 98%
Test/Control (%) at Drug Concentration ([1]; SK-OV-3, 1.0E−03 μM): 100%
Test/Control (%) at Drug Concentration ([1]; SK-OV-3, 1.0E−04 μM): 94%
Test/Control (%) at Drug Concentration ([1]; SK-OV-3, 3.2E+00 μM): 45%
Test/Control (%) at Drug Concentration ([1]; SK-OV-3, 3.2E−01 μM): 84%
Test/Control (%) at Drug Concentration ([1]; SK-OV-3, 3.2E−02 μM): 102%
Test/Control (%) at Drug Concentration ([1]; SK-OV-3, 3.2E−03 μM): 101%
Test/Control (%) at Drug Concentration ([1]; SK-OV-3, 3.2E−04 μM): 104%
Abs. IC70 ([1]; SK-OV-3, 72 h): >3200 nM
Rel. IC70 ([1]; SK-OV-3, 72 h): 679 nM
Bot. (%) ([1]; SK-OV-3, 72 h, curve fit): 44%
Top (%) ([1]; SK-OV-3, 72 h, curve fit): 100%
Test/Control (%) at Drug Concentration ([2]; 1.0E+00 μM): 1%
Test/Control (%) at Drug Concentration ([2]; 1.0E+01 μM): 0%
Test/Control (%) at Drug Concentration ([2]; 1.0E+02 μM): −1%
Test/Control (%) at Drug Concentration ([2]; 1.0E−01 μM): 63%
Test/Control (%) at Drug Concentration ([2]; 1.0E−02 μM): 81%
Test/Control (%) at Drug Concentration ([2]; 3.2E+00 μM): 1%
Test/Control (%) at Drug Concentration ([2]; 3.2E+01 μM): 0%
Test/Control (%) at Drug Concentration ([2]; 3.2E−01 μM): 6%
Test/Control (%) at Drug Concentration ([2]; 3.2E−02 μM): 78%
Test/Control (%) at Drug Concentration ([2]; 3.2E−03 μM): 94%
Compound Remaining (% of 0 min) ([3]; CYP3A4, 5 μM, 0 min): 100 % of 0 min
Compound Remaining (% of 0 min) ([3]; CYP3A4, 5 μM, 5 min): 95.1 % of 0 min
Compound Remaining (% of 0 min) ([3]; CYP3A4, 5 μM, 15 min): 85.4 % of 0 min
Compound Remaining (% of 0 min) ([3]; CYP3A4, 5 μM, 30 min): 105 % of 0 min
Compound Remaining (% of 0 min) ([3]; CYP3A4, 5 μM, 45 min): 104 % of 0 min
% compound remaining ([3]; CYP3A4, 5 μM, time not stated): > 87.5%
t1/2 ([3]; CYP3A4, substrate 5 μM): >2.25 h
half-life at 5 μM ([3]; human, recombinant CYP3A4 (Bactosomes), pH 7.4): > 2.25 h
half-life at 1 μM ([4]; cryopreserved hepatocytes (suspension), in the presence of cimetidine (30-300 μM), read-out: half-life, maximum): ≤ 2.32 h
half-life at 1 μM ([4]; cryopreserved hepatocytes (suspension), substrate 1 μM, no inhibitor, read-out: t1/2): 1.73 h
hepatocyte CLint at 1 µM ([4]; cryopreserved hepatocytes (suspension), with furafylline 10 µM, substrate 1 μM, 10 μM furafylline): 2.43 µL/min/1e6 cells
hepatocyte CLint at 1 µM ([4]; cryopreserved hepatocytes (suspension), with furafylline 30 µM, substrate 1 μM, 30 μM furafylline): 1.47 µL/min/1e6 cells
half-life at 1 μM ([4]; cryopreserved hepatocytes (suspension), with furafylline 3-30 µM (maximum half-life over 3, 10 and 30 µM), in the presence of furafylline (3-30 μM), read-out: half-life, maximum): ≤ 15.7 h
hepatocyte CLint at 1 µM ([4]; cryopreserved hepatocytes, substrate 1 μM, absence of inhibitor (inhibitor experiment)): 13.3 µL/min/1e6 cells
hepatocyte CLint at 1 µM ([4]; cryopreserved hepatocytes, substrate 1 μM, hepatocyte stability investigation (no inhibitor arm)): 19.1 µL/min/1e6 cells
hepatocyte CLint at 1 µM ([4]; cryopreserved hepatocytes, with cimetidine 30 μM, substrate 1 μM, 30 μM cimetidine): 13.2 µL/min/1e6 cells
half-life at 1 μM ([4]; cryopreserved hepatocytes, with cimetidine 30 μM, substrate 1 μM, cimetidine 30 μM, read-out: t1/2): 1.75 h
hepatocyte CLint at 1 µM ([4]; cryopreserved hepatocytes, with cimetidine 100 μM, substrate 1 μM, 100 μM cimetidine): 14.7 µL/min/1e6 cells
half-life at 1 μM ([4]; cryopreserved hepatocytes, with cimetidine 100 μM, substrate 1 μM, cimetidine 100 μM, read-out: t1/2): 1.57 h
hepatocyte CLint at 1 µM ([4]; cryopreserved hepatocytes, with cimetidine 300 μM, substrate 1 μM, 300 μM cimetidine): 9.98 µL/min/1e6 cells
half-life at 1 μM ([4]; cryopreserved hepatocytes, with cimetidine 300 μM, substrate 1 μM, cimetidine 300 μM, read-out: t1/2): 2.32 h
hepatocyte CLint at 1 µM ([4]; cryopreserved hepatocytes, with furafylline 3 μM, substrate 1 μM, 3 μM furafylline): 3.47 µL/min/1e6 cells
half-life at 1 μM ([4]; cryopreserved hepatocytes, with furafylline 3 μM, substrate 1 μM, furafylline 3 μM, read-out: t1/2): 6.65 h
half-life at 1 μM ([4]; cryopreserved hepatocytes, with furafylline 10 μM, substrate 1 μM, furafylline 10 μM, read-out: t1/2): 9.5 h
half-life at 1 μM ([4]; cryopreserved hepatocytes, with furafylline 30 μM, substrate 1 μM, furafylline 30 μM, read-out: t1/2): 15.7 h
half-life at 1 μM [5]: 1.54 h
